Data on one compound can be found in US6514540B1, “Therapeutic composition including plantain and aloe vera for treatment of arthritis and other afflictions” (priority 1999, dated 2003).

For this assay, the system named is arthritic symptoms. The experiment in a line: Clinical trials: topical application for arthritis symptoms. The settings on record: Subject No. 1, inflamed finger joint; injected locally and up to 80 mg orally over four to five months. The class given is in vivo, human.

SMILES strings stand for the structures.

Description: In addition, the entire finger and part of the hand was affected by the pain and the swelling resulting in restricted use of the hand.
The steroids were both injected locally and ingested in the form of up to 80 mg of prednazone, which was taken orally over a period of four to five months.
During this period, the frequency of the application of the cream or lotion and heat gradually diminished to three times per day without a need for augmentation of the treatment with heat.
Onset of these symptoms can result in a two- to three-fold increase in the size of a joint, with an inflammation of the surrounding tissue. This can occur in a matter of hours and affects the associated limb resulting in substantial pain, a loss of strength in the entire limb, sleep interruption (due to pain), and general malaise due to the intensity and continuous nature of the throbbing.

For the compound `C[C@]12C=CC(=O)C=C1CC[C@@H]1[C@@H]2C(=O)C[C@@]2(C)[C@H]1CC[C@]2(O)C(=O)CO` [prednazone], the “relief of pain and swelling by conventional steroid treatment” value is “some initial success in relieving both the pain and swelling, but upon elimination of the drug, the symptoms returned”.
